Columns and labels:
[1] = target: T1, PERK (Rattus norvegicus, UniProt Q9Z1Z1); assay type: in vivo
T1 construct: the PERK shRNA lentivirus was stereotacticaly injected to the IC of adult rats; from tissue; host or cells: insular cortex of adult male Wistar Hola rats, in vivo
T1 sequence (Q9Z1Z1 28-1108): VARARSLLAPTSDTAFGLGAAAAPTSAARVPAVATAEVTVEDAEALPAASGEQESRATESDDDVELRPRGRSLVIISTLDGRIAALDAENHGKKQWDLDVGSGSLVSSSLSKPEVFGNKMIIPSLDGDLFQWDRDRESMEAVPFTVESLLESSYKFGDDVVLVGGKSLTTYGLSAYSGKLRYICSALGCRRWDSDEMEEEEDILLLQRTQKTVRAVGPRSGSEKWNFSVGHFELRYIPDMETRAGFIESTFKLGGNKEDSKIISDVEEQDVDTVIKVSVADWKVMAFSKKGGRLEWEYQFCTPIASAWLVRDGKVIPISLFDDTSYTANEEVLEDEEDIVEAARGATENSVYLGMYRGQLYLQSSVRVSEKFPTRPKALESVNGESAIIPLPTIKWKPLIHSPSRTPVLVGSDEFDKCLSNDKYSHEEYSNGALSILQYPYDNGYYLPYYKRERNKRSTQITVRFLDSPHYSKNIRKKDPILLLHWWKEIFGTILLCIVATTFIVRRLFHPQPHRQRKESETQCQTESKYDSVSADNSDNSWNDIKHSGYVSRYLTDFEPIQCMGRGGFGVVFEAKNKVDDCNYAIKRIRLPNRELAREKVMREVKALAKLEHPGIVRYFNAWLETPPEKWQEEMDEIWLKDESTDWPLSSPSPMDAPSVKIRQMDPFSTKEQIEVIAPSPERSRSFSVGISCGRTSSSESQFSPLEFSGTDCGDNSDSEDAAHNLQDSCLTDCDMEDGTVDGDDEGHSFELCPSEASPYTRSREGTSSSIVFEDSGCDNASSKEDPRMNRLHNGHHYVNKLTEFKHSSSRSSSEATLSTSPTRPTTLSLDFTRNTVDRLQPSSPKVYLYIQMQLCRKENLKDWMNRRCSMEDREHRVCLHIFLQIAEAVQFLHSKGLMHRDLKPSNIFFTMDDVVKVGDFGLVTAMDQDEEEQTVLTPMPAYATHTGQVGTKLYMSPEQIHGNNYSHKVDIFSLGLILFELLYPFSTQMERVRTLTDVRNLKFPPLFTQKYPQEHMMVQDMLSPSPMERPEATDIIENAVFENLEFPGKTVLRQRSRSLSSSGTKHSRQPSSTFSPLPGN
Experimental: Briefly, the rats were anesthetized by administration of equithesin (0.3 ml/100 g), comprising 2.12% (w/v) MgSO4, 10% (v/v) ethanol, 39.1% (v/v) propyleneglycol, 0.98% (w/v) sodium pentobarbital, and 4.2% (w/v) chloral hydrate. They were restrained in a stereotactic frame (Steolting Europe, Dublin-Ireland) and stainless steel guide cannulae (23-gauge) were bilaterally implanted into the insular cortex, angled at (with reference to bregma), anteroposterior=+1.2 mm, lateral±5.5 mm, and ventral 5.0 mm (1 mm ahead of injecting cannula). Two skull screws were inserted into the skull, and acrylic dental cement was applied to secure the cannulae in position. A 28 gauge stylus was inserted into each guide cannula to prevent clogging. The rats were allowed a week in individual cages to recover from the surgery, before the experimental manipulation. PERK inhibitor GSK2606414 (Axten et al., 2012) was dissolved in DMSO and further diluted in saline to a final DMSO concentration of 0.5%. A total of 1 μl of 100 nM GSK2606414 or vehicle was infused bilaterally. For microinfusion, the stylus was removed from the guide cannula and a 28 gauge injection cannula was carefully inserted, to extend 1.0 mm beyond the tip of the guide cannula. The injection cannula was connected via PE20 tubing to a Hamilton syringe (Hamilton) driven by a CMA/100 microinjection pump (Carnegie Medicine), to provide an injection rate of 1 μl/min. After 1 min of infusion, the injection cannula was kept in the guide cannula for an additional minute to minimize dragging of infused solutes along the injection tract. Locations of cannula were verified in 30 μm coronal sections.
Aversion to the novel taste, 0.3% NaCl was measured as described below.

[2] = tested on: PERK; assay type: in vivo, mouse; conditions: CA1 punches after 100 nM infusion into CA1; vs vehicle
Text: Animals were anesthetized under 2% isoflurane using an isoflurane table top unit (HME109, Highland Medical Equipment). Under aseptic conditions, a rodent stereotaxic apparatus (Kopf Stereotaxic Alignment System Model 1900) with continuous 1% isoflurane anesthesia was used. For CA1 infusion cannula was implanted bilaterally into the CA1 region (from the bregma: −1.94 mm AP, ±1.0 mm ML, −1.0 mm DV). The implanted cannula was cemented on the skull. Each cannula was fitted with a 28 gauge dummy cannula that extended 0.1 mm beyond the tip of the guide cannula to prevent blockage of the guide cannula. After cannulation, mice were allowed to recover for 7 days before infusion of PERK inhibitor or vehicle and behavior. On conditioning day, randomly assigned mice were infused with 100 nM PERK inhibitor GSK2606414 (Axten et al., 2012) dissolved in dimethyl sulfoxide (DMSO) and further diluted in saline to a final DMSO concentration of 0.5%, via a 28-gauge infusion cannula connected by polyethylene (PE 20) tubing to a 10 μL Hamilton microsyringe (Hamilton Company). The infusion cannula protruded 0.25 mm beyond the guide cannula. For CA1 administration, infusion volume of 1 μl of 100 nM GSK2606414 or vehicle was delivered using a Harvard PHD2000 syringe pump (Harvard Apparatus) over the course of 1 min (at a rate of 1 μL/min). […]

[3] = target: T2, PERK (Mus musculus, UniProt Q9Z2B5); assay type: in vivo
T2 construct: from tissue; host or cells: CA1 region of the hippocampus of C57BL/6 mice, in vivo
T2 sequence (Q9Z2B5 29-1114): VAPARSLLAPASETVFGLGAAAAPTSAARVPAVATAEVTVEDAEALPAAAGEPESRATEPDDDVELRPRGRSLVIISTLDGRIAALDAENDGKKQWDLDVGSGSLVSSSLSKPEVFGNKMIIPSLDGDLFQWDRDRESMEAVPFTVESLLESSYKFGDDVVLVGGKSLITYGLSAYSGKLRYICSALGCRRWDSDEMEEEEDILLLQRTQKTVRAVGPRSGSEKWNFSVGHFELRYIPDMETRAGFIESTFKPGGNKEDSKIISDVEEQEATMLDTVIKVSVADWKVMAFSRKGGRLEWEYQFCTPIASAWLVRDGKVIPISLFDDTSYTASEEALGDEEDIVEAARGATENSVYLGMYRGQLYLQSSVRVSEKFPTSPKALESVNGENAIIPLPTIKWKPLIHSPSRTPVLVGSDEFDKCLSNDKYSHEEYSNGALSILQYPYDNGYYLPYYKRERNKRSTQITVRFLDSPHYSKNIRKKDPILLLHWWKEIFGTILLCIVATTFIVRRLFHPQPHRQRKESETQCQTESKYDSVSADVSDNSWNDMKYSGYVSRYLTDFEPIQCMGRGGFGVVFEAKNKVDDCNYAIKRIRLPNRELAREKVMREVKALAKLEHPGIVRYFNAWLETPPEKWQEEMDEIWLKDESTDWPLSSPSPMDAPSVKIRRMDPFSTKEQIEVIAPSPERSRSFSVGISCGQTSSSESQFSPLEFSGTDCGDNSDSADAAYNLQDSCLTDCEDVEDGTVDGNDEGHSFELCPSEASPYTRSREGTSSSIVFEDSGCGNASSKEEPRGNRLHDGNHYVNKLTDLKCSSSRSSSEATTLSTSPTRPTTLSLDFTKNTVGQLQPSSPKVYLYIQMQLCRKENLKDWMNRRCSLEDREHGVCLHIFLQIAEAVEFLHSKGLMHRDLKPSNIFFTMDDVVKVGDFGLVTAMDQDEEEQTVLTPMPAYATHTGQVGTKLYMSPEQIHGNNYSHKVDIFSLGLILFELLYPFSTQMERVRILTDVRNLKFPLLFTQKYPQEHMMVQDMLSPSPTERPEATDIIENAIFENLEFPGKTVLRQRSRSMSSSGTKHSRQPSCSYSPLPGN
Text: Animals were anesthetized under 2% isoflurane using an isoflurane table top unit (HME109, Highland Medical Equipment). Under aseptic conditions, a rodent stereotaxic apparatus (Kopf Stereotaxic Alignment System Model 1900) with continuous 1% isoflurane anesthesia was used. For CA1 infusion cannula was implanted bilaterally into the CA1 region (from the bregma: −1.94 mm AP, ±1.0 mm ML, −1.0 mm DV). The implanted cannula was cemented on the skull. Each cannula was fitted with a 28 gauge dummy cannula that extended 0.1 mm beyond the tip of the guide cannula to prevent blockage of the guide cannula. After cannulation, mice were allowed to recover for 7 days before infusion of PERK inhibitor or vehicle and behavior. On conditioning day, randomly assigned mice were infused with 100 nM PERK inhibitor GSK2606414 (Axten et al., 2012) dissolved in dimethyl sulfoxide (DMSO) and further diluted in saline to a final DMSO concentration of 0.5%, via a 28-gauge infusion cannula connected by polyethylene (PE 20) tubing to a 10 μL Hamilton microsyringe (Hamilton Company). The infusion cannula protruded 0.25 mm beyond the guide cannula. For CA1 administration, infusion volume of 1 μl of 100 nM GSK2606414 or vehicle was delivered using a Harvard PHD2000 syringe pump (Harvard Apparatus) over the course of 1 min (at a rate of 1 μL/min). After infusion, the injection cannula was kept in the guide cannula for an additional minute to minimize dragging of infused solutes along the injection tract. Locations of cannula were verified in 30 μm coronal sections.
Model chambers measuring 25×25×25 cm internally (Panlab, Harvard Apparatus) were located inside a larger, insulated plastic cabinet that excluded external light and noise. For the trace fear conditioning protocol, mice were placed in a chamber (with light [20 W bulb] and a 16 bar metal grid floor) for 120 s, after which the mice received a 2.9 kHz tone, applied for 20 s at 80 dB (conditioned stimulus) and a 0.5 mA footshock applied for 2 s (unconditioned stimulus) 20 s following the end of the conditioned stimulus. This protocol was repeated 5 times, where each tone-shock presentation was separated by a 2-minute interval. After administration of the last shock, animals remained in the chamber for 2 minutes before they were taken back to the home cage. The chambers were cleaned with 10% ethanol between successive sets of mice. Animals from control and treatment groups were randomized between the 4 different chambers.

[4] = target: T1, PERK; assay type: in vivo; conditions: 0.1% saccharin; 1 μl 100 nM into IC 20 min prior to novel taste; test day1; n=8
Experimental: For virus infusions, rats were first anesthetized with Ketamine (120 mg/kg) and Xylazine (6 mg/kg) and placed into a stereotactic frame (Steolting Europe, Dublin—Ireland) (Using a 32-gauge stainless steel injector attached to a stereotactic infusion pump, rats received 1 μl of lentivirus encoding PERK shRNA or lentivirus harboring a scrambled sequence over 10 min into the insular cortex (anteroposterior, +1.2 mm relative to bregma; lateral, ±5.5 mm; ventral, −6.0 mm) according to the atlas of Paxinos, G. & Watson, C. (2006). The injector was lets in place for 5 min before and after infusion to minimize fluid retraction. The rats were allowed at least 7 days to recover from the surgery before any behavior experiments were conducted.
The rats were cannulated as described in Barki-Harrington et al. (2009). […]
The rats were separated into individual housing cages and underwent a 3-day water-restriction training session, in which once a day for 20 min, they were offered 20 ml of water from two pipettes, each containing 10 ml. […] The behavioral data are presented in terms of preference index, expressed as a percentage, [ml saccharin/(ml water plus ml saccharin)]×100, in which the quantities are those consumed during each test.

[5] = 100 nM bilateral infusion to CA1 50 min prior to acquisition, 48 h after conditioning, vs vehicle

Cn1cc(-c2ccc3c(c2)CCN3C(=O)Cc2cccc(C(F)(F)F)c2)c2c(N)ncnc21 [GSK2606414, 7-methyl-5-(1-{[3-(trifluoromethyl)phenyl]acetyl}-2,3-dihydro-1H-indol-5-yl)-7H-pyrrolo[2,3-d]pyrimidin-4-amine]
aversion index (CTA memory) ([1]; 0.3% NaCl + 0.075 M LiCl i.p., 1 μl 100 nM into IC 20 min prior to novel taste, n=8): 72%±3.5 | extinction of CTA ([1]; single injection of 100 nM into IC during CTA): not affected | total drinking volumes ([1]; vs vehicle group throughout the behavioral procedure, data not shown): similar | total PERK levels [2]: no effect | freezing during tone presentation (tone memory) [3, 5]: enhanced freezing | freezing in the trace interval following the tone (trace memory) [3, 5]: enhanced freezing | context memory (freezing) ([3]; 100 nM bilateral infusion to CA1, 24 h after conditioning, vs vehicle): not altered | extinction (cue and trace) ([3]; 100 nM infusion to CA1 at the time of conditioning): no effect | preference index [4]: 83%±2.2
